Structures can show the parent of a compound that is named as a salt.
Experiments:
[1] = molecular target: T1, CRISP2^N97P L98G (Homo sapiens, UniProt P16562, L98G/N97P); experiment: MST binding to CRISP2 double mutant N97P L98G; design: species or system mammalian; conditions: absence of PSP94, read-out: Kd, sterol binding by CRISP2^N97P L98G
T1 construct: made in house; host or cells: E. coli
T1 sequence (P16562 22-243 N97P/L98G): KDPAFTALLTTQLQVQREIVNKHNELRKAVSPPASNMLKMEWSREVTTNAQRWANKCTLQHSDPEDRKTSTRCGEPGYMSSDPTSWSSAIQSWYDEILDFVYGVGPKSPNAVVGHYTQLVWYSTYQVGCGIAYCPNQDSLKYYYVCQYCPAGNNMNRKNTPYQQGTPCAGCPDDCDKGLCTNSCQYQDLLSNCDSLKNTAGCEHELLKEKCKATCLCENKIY
Protocol: Next, we generated all three double mutant combinations of CRISP2: N97P L98G, N97P Y99P, and L98G Y99P. These three double mutant versions of CRISP2 were again expressed as His-tagged proteins in E. coli and purified, and their capacity to bind sterols in the presence or absence of PSP94 was assessed by MST. […] The capacity of the CRISP2^L98G Y99P double mutant to bind sterols even in the presence of PSP94 was confirmed by the in vivo sterol export assay (Fig. 6, A and B). When expressed in yeast cells, the CRISP2^L98G Y99P double mutant was stably expressed and secreted as monitored by Western blotting (Fig. 6C).
MST experiments were performed to assess protein–protein, protein–lipid, and protein–calcium interactions using a Monolith NT.115 (Nanotemper Technologies). Proteins were labeled using the RED-tris-NTA His tag protein labeling kit. Labeled CAP proteins, 100 nM, were mixed with a serial dilution of unlabeled PSP94, PSP9^F24G, cholesterol sulfate, or calcium chloride, prepared in binding buffer (20 mM Tris pH 7.5, 30 mM NaCl, 0.05% Triton X-100). Samples were loaded into MST standard capillaries, and MST measurements were performed using an 80% laser power setting. The dissociation constant Kd was obtained by plotting the normalized fluorescence (Fnorm) against the logarithm of ligand concentration. […]

[2] = molecular target: T2, CRISP2 N97P (Homo sapiens, UniProt P16562, N97P); experiment: MST binding to CRISP2 single mutant N97P; design: species or system mammalian; conditions: absence of PSP94, read-out: Kd, sterol binding by CRISP2 N97P
T2 construct: made in house; host or cells: E. coli
From the text: This interaction is thus located outside the hydrophobic loop that harbors the sterol-binding CBM. Based on these structural considerations, it is thus not apparent why and how the interaction between PSP94 and CRISP2 would block sterol binding at the CBM. To investigate this question in more detail, we first performed computational docking studies to identify residues in CRISP2 that are critical for the interaction with PSP94. […] Two of these three interacting residues, N97 and L98, are conserved in all three CAP family members tested here, CRISP2, CRISP3, and Pry1 (Fig. 4A). […]
MST experiments were performed to assess protein–protein, protein–lipid, and protein–calcium interactions using a Monolith NT.115 (Nanotemper Technologies). […] The dissociation constant Kd was obtained by plotting the normalized fluorescence (Fnorm) against the logarithm of ligand concentration. […]
Quadruple mutant cells lacking the acyl-CoA synthetases FAA1 and FAA4 and the yeast CAP family members PRY1 and PRY3 (faa1∆ faa4∆ pry1∆ pry3∆) expressing different combinations of plasmid-borne copies of PRY1, CRISP2, and or PSP94, or their respective empty vectors (pRS423 or pRS426) were cultivated overnight. The export of fatty acids into the culture medium was then quantified. […]

T2 sequence (P16562 22-243 N97P): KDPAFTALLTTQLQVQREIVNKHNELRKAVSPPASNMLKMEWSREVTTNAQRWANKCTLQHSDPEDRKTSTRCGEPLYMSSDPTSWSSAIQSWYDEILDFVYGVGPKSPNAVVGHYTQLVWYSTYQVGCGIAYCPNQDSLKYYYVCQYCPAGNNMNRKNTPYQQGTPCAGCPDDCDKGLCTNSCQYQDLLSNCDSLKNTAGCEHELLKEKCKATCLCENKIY

**Q.** What does the source list for `CC(C)CCC[C@@H](C)[C@H]1CC[C@H]2[C@@H]3CC=C4C[C@@H](OS(=O)(=O)O)CC[C@]4(C)[C@H]3CC[C@]12C` [cholesterol sulfate]?
**A.** Kd [1]: 3.8 ± 1.9 µM; Kd [2]: 3.1 ± 1.5 µM
